# Measurements: PMC6009966, “A novel proton transfer salt of 2-amino-6-sulfamoylbenzothiazole and its metal complexes: the evaluation of their inhibition effects on human cytosolic carbonic anhydrases” (Journal of Enzyme Inhibition and Medicinal Chemistry, 2017)
# What was measured:
# Assay type in all cases: biochemical
# hCA I [1] = target: T1, hCA I (Homo sapiens, UniProt P00915); assay: CO2 hydratase activity inhibition of hCA I (pH-stat method)
# Description: (§1) Erythrocytes were purified from human blood. The blood samples were centrifuged at 1500 rpm for 20 min, and plasma was removed. Later, red cells were washed with isotonic solution (0.9% NaCl), and the erythrocytes were hemolyzed with 1.5 volumes of ice-cold water. Cell membranes were removed by centrifugation at 4 °C, 20000 rpm for 30 min. The pH of hemolysate was adjusted to 8.7 with solid TRIS (tris(hydroxymethyl)aminomethane). […] After extensive washing with a solution of 25.0 mM TRIS-HCl/22.0 mM Na2SO4 (pH 8.7), the hCA I and hCA II isoenzymes were eluted with the solution of 1.0 M NaCl/25.0 mM Na2HPO4 (pH 6.3) and 0.1 M NaCH3COO/0.5 M NaClO4 (pH 5.6), respectively. For quantitative protein determination, the Bradford method was used with bovine serum albumin as standard. Also, the purity control of the isoenzymes was performed with SDS-PAGE after the purification.
# (§2) The enzyme unit (EU) is the enzyme amount that reduces the non-enzymatic reaction time by 50%. The activity of an enzyme unit was calculated by using the equation ((t0−tc)/tc), where t0 and tc are times for pH change of the non-enzymatic and enzymatic reactions, respectively.
# (§3) Regression analysis graphs were drawn by plotting the percent enzyme activity versus inhibitor concentration and IC50 values were calculated.
# hCA II [2] = target: T2, hCA II (Homo sapiens, UniProt P00918); assay: CO2 hydratase activity inhibition of hCA II (pH-stat method)
# Description: as §1, §2, §3
# hCA I [3] = target: T1, hCA I; assay: Esterase activity inhibition of hCA I (4-nitrophenylacetate, 348 nm)
# Description: as §1
# (§4) The enzymatic reaction, in a total volume of 3.0 mL, contained 1.4 mL of 0.05 M TRIS–SO4 buffer (pH 7.4), 1.0 mL of 3.0 mM 4-nitrophenylacetate, 0.5 mL H2O, and 0.1 mL enzyme solution. A reference measurement was obtained by preparing the same cuvette without enzyme solution.
# as §3
# (§5) Enzyme activity was also measured in the presence of the same substrate concentrations but in the absence of any inhibitor to determine the Vmax (Supplementary Figure S3).
# hCA II [4] = target: T2, hCA II; assay: Esterase activity inhibition of hCA II (4-nitrophenylacetate, 348 nm)
# Description: as §1, §4, §3, §5
# [5] = CO2 hydratase activity, 0 °C, veronal buffer pH 8.15, mean ± standard error, three assays
# [6] = 4-nitrophenylacetate, 25 °C, TRIS-SO4 pH 7.4, mean ± standard error, three assays
# [7] = determined by esterase activity measurements, Lineweaver-Burk plot, mean ± standard error, three assays
# T1 sequence (P00915 whole entry): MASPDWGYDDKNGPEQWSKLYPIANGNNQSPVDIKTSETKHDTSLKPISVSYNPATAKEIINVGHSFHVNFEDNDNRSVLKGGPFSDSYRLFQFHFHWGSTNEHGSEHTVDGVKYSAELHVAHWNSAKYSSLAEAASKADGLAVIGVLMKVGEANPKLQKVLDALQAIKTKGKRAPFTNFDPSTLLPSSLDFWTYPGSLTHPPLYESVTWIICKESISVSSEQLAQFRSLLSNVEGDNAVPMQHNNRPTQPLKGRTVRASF
Compound,IC50 (hCA I [1]; [5]),IC50 (hCA II [2]; [5]),IC50 (hCA I [3]; [6]),Ki (hCA I [3]; [7]),IC50 (hCA II [4]; [6]),Ki (hCA II [4]; [7]),"hCA II inhibited stronger than hCA I (esterase activity) (hCA II [4]; esterase activity, hCA II versus hCA I)",Inhibition of hydratase activity of hCA I (in words) (hCA I [1]),Hydratase IC50 hCA I (hCA I [1]; [5]),Inhibition of hydratase activity of hCA II (in words) (hCA II [2]),Hydratase IC50 hCA II (hCA II [2]; [5]),Inhibition of esterase activity of hCA I (in words) (hCA I [3]),Esterase IC50 hCA I (hCA I [3]; [6]),Ki hCA I (hCA I [3]; [7]),Inhibition of esterase activity of hCA II (in words) (hCA II [4]),Esterase IC50 hCA II (hCA II [4]; [6]),Ki hCA II (hCA II [4]; [7])
(SMHABT)2[Co(DPC)2].5H2O [Compound 3],1601 ± 8 nM,703 ± 14 nM,66 ± 4 nM,28 ± 2 nM,41 ± 3 nM,13 ± 6 nM,1.5 fold,,,,,,,,,,
"Nc1nc2ccc(S(N)(=O)=O)cc2s1 [SMABT, 2-amino-6-sulfamoylbenzothiazole]",6348 ± 12 nM,3876 ± 14 nM,567 ± 8 nM,306 ± 4 nM,322 ± 6 nM,162 ± 10 nM,,,,,,,,,,,
(SMHABT)2[Ni(DPC)2].5H2O [Compound 4],397 ± 11 nM,212 ± 6 nM,136 ± 3 nM,43 ± 12 nM,54 ± 1 nM,21 ± 4 nM,,,,,,,,,,,
(SMHABT)[Fe(DPC)2].4H2O [Compound 2],2533 ± 23 nM,1010 ± 13 nM,409 ± 21 nM,192 ± 19 nM,189 ± 5 nM,101 ± 5 nM,,,,,,,,,,,
"Nc1nc2ccc(S(N)(=O)=O)cc2s1.O=C(O)c1cccc(C(=O)O)n1 [Compound 1, (SMHABT)^+(HDPC)^−]",4075 ± 18 nM,1998 ± 9 nM,258 ± 17 nM,149 ± 17 nM,133 ± 15 nM,85 ± 19 nM,,,,,,,,,,,
"NC(=S)Nc1ccc(S(N)(=O)=O)cc1 [TBS, 4-thioureidobenzenesulfonamide, reference compound]",7846 ± 5 nM,4334 ± 21 nM,499 ± 10 nM,268 ± 7 nM,234 ± 6 nM,114 ± 3 nM,,,,,,,,,,,
"O=C(O)c1cccc(C(=O)O)n1 [Compound H2DPC, 2,6-pyridinedicarboxylic acid, reference compound]",,,,,,,,have not inhibited,No inhibition,have not inhibited,No inhibition,have not inhibited,No inhibition,No inhibition,have not inhibited,No inhibition,No inhibition
